In patent US3939043A, “Antibiotics designated XK-88 series and process for production thereof” (Abbott Laboratories, priority 1973, dated 1976):
Converted amounts (≈) assume the structure as drawn. Where two headings read alike, the source gives them in different places.

Assays:
Type in all cases: cell-based
[1] = test system: Pseudomonas aeruginosa BMH No. 1; test: In vitro antibacterial spectrum by agar dilution method (pH 8.0)
[2] = test system: Proteus vulgaris ATCC 6897; test: as above
[3] = test system: Gram-positive and Gram-negative bacteria; test: Antibacterial activity (summary of Table 4); conditions: versus the said known antibiotics; from Table 4
Text: (§1) The in vitro antibacterial spectra of the XK-88 antibiotics by agar dilution method (pH 8.0) is illustrated in the following Table 4: […]

[4] = test system: Staphylococcus aureus KY 8953; test: In vitro antibacterial spectrum by agar dilution method (pH 8.0)
Escherichia coli KY 8334 = test: as above; conditions: KY8334, Escherichia coli KY 8334 (resistant to Kanamycin and Tobramycin), read-out: Minimum Inhibitory Concentration (M.I.C.)
[5] = test system: Klebsiella pneumoniae ATCC 10031; test: as above; conditions: ATCC10031, read-out: Minimum Inhibitory Concentration (M.I.C.)
[6] = test system: Staphylococcus aureus KY 8956; test: as above; conditions: KY8956, Staphylococcus aureus KY 8956 (resistant to Streptomycin, Paromomycin, Tetracycline, Kanamycin, Nebramycin, Tobramycin and Erythromycin), read-out: Minimum Inhibitory Concentration (M.I.C.)
[7] = test system: Bacillus cereus ATCC 9634; test: as above; conditions: ATCC9634, read-out: Minimum Inhibitory Concentration (M.I.C.)
[8] = test system: Staphylococcus aureus KY 8942; test: as above
Escherichia coli KY 8327 = test: as above; conditions: KY8327, Escherichia coli KY 8327 (resistant to Kanamycin, Gentamicin, Nebramycin and Tobramycin), read-out: Minimum Inhibitory Concentration (M.I.C.)
[9] = test system: Streptococcus faecalis ATCC 10541; test: as above; conditions: Enterococcus faecalis
[10] = test system: Staphylococcus aureus ATCC 6538P; test: as above; conditions: ATCC6538P, read-out: Minimum Inhibitory Concentration (M.I.C.)
[11] = test system: Bacillus subtilis No. 10703; test: as above
Escherichia coli KY 8348 = test: as above; conditions: KY8348, Escherichia coli KY 8348 (resistant to Streptomycin and Gentamicin), read-out: Minimum Inhibitory Concentration (M.I.C.)
Escherichia coli ATCC 26 = test: as above
[12] = test system: Bacillus cereus var. mycoides ATCC 9463; test: microbe, parasite or virus in culture; conditions: ATCC9463, pH 8, read-out: Minimum Inhibitory Concentration (M.I.C.)
[13] = test system: Salmonella typhosa ATCC 9992; test: In vitro antibacterial spectrum by agar dilution method (pH 8.0); conditions: Salmonella enterica, pH 8, read-out: Minimum Inhibitory Concentration (M.I.C.)
Staphylococcus aureus = test: Antibacterial activity against resistant bacteria (summary of Table 4); conditions: Staphylococcus aureus normally resistant to various known antibiotics
Text: as §1

Escherichia coli = test: as above; conditions: Escherichia coli normally resistant to various known antibiotics
Text: as §1

Escherichia coli KY 8314 = test: In vitro antibacterial spectrum by agar dilution method (pH 8.0); conditions: KY8314, Escherichia coli KY 8314 (resistant to Streptomycin), read-out: Minimum Inhibitory Concentration (M.I.C.)
Text: (§2) The in vitro antibacterial spectra of the XK-88 antibiotics by agar dilution method (pH 8.0) is illustrated in the following Table 4:
(§3) (Minimum Inhibitory Concentration (μg/ml)
(§4) by agar dilution method (pH 8.0)

[14] = test system: Shigella sonnei ATCC 9290; test: as above; conditions: ATCC9290, read-out: Minimum Inhibitory Concentration (M.I.C.)
Text: as §2, §3, §4

Escherichia coli KY 8331 = test: as above; conditions: KY8331, Escherichia coli KY 8331 (resistant to Kanamycin, Ribostamycin, Neomycin, Paromomycin, Lividomycin and Nebramycin), read-out: Minimum Inhibitory Concentration (M.I.C.)
Text: as §2, §3, §4

Escherichia coli KY 8310 = test: as above; conditions: KY8310, Escherichia coli KY 8310 (resistant to Chloramphenicol, Streptomycin, Kanamycin, Gentamicin, Paromomycin, Nebramycin, Tobramycin, Spectinomycin and Tetracycline), read-out: Minimum Inhibitory Concentration (M.I.C.)
Text: as §2, §3, §4

[15] = test system: Staphylococcus aureus KY 8957; test: as above; conditions: KY8957, Staphylococcus aureus KY 8957 (resistant to Chloramphenicol, Streptomycin, Kanamycin, Paromomycin, Nebramycin, Tobramycin and Tetracycline), read-out: Minimum Inhibitory Concentration (M.I.C.)
[16] = test system: Staphylococcus aureus KY 8950; test: as above; conditions: KY8950, Staphylococcus aureus KY 8950 (resistant to Streptomycin, Tetracycline, Penicillin and sulfonamide), read-out: Minimum Inhibitory Concentration (M.I.C.)
[17] = Staphylococcus aureus, KY8953, pH 8, read-out: Minimum Inhibitory Concentration (M.I.C.)
[18] = ATCC10541, pH 8, read-out: Minimum Inhibitory Concentration (M.I.C.)
[19] = BMHNO.1, Pseudomonas aeruginosa BMH No. 1, agar dilution, pH 8.0, read-out: Minimum Inhibitory Concentration (M.I.C.)
[20] = ATCC6897, Proteus vulgaris ATCC 6897, agar dilution, pH 8.0, read-out: Minimum Inhibitory Concentration (M.I.C.)
[21] = KY8953, Staphylococcus aureus KY 8953 (resistant to Streptomycin, Kanamycin, Paromycin, Neomycin, Tetracycline, Erythromycin), agar dilution, pH 8.0, read-out: Minimum Inhibitory Concentration (M.I.C.)
[22] = KY8942, Staphylococcus aureus KY 8942 (resistant to Kanamycin, Paromomycin, Streptomycin, Gentamicin and Nebramycin), agar dilution, pH 8.0, read-out: Minimum Inhibitory Concentration (M.I.C.)
[23] = Bacillus subtilis No. 10703, agar dilution, pH 8.0, read-out: Minimum Inhibitory Concentration (M.I.C.)
[24] = ATCC26, Escherichia coli ATCC 26, agar dilution, pH 8.0, read-out: Minimum Inhibitory Concentration (M.I.C.)

Compound | cross resistance with known antibiotics [3] | MIC (Escherichia coli KY 8334) [µg/mL] | MIC [5] [µg/mL] | MIC [6] [µg/mL] | MIC [7] [µg/mL] | MIC (Escherichia coli KY 8327) [µg/mL] | MIC [9, 18] [µg/mL] | MIC [10] [µg/mL] | MIC (Escherichia coli KY 8348) [µg/mL] | MIC [12] [µg/mL] | MIC [13] [µg/mL] | antibacterial activity (Staphylococcus aureus) | antibacterial activity (Escherichia coli) | MIC (Escherichia coli KY 8314) [µg/mL] | MIC [14] [µg/mL] | MIC (Escherichia coli KY 8331) [µg/mL] | MIC (Escherichia coli KY 8310) [µg/mL] | MIC [15] [µg/mL] | MIC [16] [µg/mL] | MIC [1, 19] [µg/mL] | other results
NC1CC(N)C(OC2OC(CO)C(O)C(O)C2N)C(O)C1OC1OCC(O)C(O)C1N (stereo not shown) [XK-88-1] | complete cross resistance does not always occur | 1.65 (≈ 3.63 µM) | 13.1 (≈ 28.8 µM) | 208 (≈ 459 µM) | 6.6 (≈ 14.5 µM) | 13.1 (≈ 28.8 µM) | > 416 | 6.6 (≈ 14.5 µM) | 13.5 (≈ 29.7 µM) | 3.3 (≈ 7.26 µM) | 26.1 (≈ 57.4 µM) | strong antibacterial activity | strong antibacterial activity | 52.1 (≈ 115 µM) | 52.1 (≈ 115 µM) | > 416 | > 416 | 104 (≈ 229 µM) | 13.1 (≈ 28.8 µM) | – | MIC ([1]; Pseudomonas aeruginosa, BMHNO.1, pH 8, read-out: Minimum Inhibitory Concentration (M.I.C.)): > 416 µg/mL; MIC ([2]; Proteus vulgaris, ATCC6897, pH 8, read-out: Minimum Inhibitory Concentration (M.I.C.)): 416 µg/mL (≈ 916 µM); MIC [4, 17]: > 416 µg/mL; MIC ([8]; Staphylococcus aureus, KY8942, pH 8, read-out: Minimum Inhibitory Concentration (M.I.C.)): 52.1 µg/mL (≈ 115 µM); MIC ([11]; Bacillus subtilis, NO.10703, pH 8, read-out: Minimum Inhibitory Concentration (M.I.C.)): 52.1 µg/mL (≈ 115 µM); MIC (Escherichia coli ATCC 26; Escherichia coli, ATCC26, pH 8, read-out: Minimum Inhibitory Concentration (M.I.C.)): 26.1 µg/mL (≈ 57.4 µM)
NCC1CC(O)C(N)C(OC2C(N)CC(N)C(O)C2O)O1 (stereo not shown) [XK-88-2] | complete cross resistance does not always occur | 5.3 (≈ 17.3 µM) | 0.18 (≈ 0.588 µM) | 0.09 (≈ 0.294 µM) | 2.7 (≈ 8.81 µM) | 0.18 (≈ 0.588 µM) | > 83.3 | 0.18 (≈ 0.588 µM) | 0.18 (≈ 0.588 µM) | 0.7 (≈ 2.28 µM) | 0.7 (≈ 2.28 µM) | strong antibacterial activity | strong antibacterial activity | 1.4 (≈ 4.57 µM) | 1.4 (≈ 4.57 µM) | 41.7 (≈ 136 µM) | > 83.3 | 0.09 (≈ 0.294 µM) | 0.35 (≈ 1.14 µM) | 10.5 (≈ 34.3 µM) | MIC [2, 20]: 1.4 µg/mL (≈ 4.57 µM); MIC [4, 21]: 0.35 µg/mL (≈ 1.14 µM); MIC [8, 22]: 1.4 µg/mL (≈ 4.57 µM); MIC [11, 23]: 0.35 µg/mL (≈ 1.14 µM); MIC (Escherichia coli ATCC 26; [24]): 0.35 µg/mL (≈ 1.14 µM)
NCC1OC(OC2C(N)CC(N)C(OC3OCC(O)C(O)C3N)C2O)C(N)C(O)C1O (stereo not shown) [XK-88-3] | complete cross resistance does not always occur | 5.3 (≈ 11.7 µM) | 0.05 (≈ 0.11 µM) | 5.3 (≈ 11.7 µM) | 2.7 (≈ 5.95 µM) | 0.05 (≈ 0.11 µM) | > 83.3 | 0.18 (≈ 0.397 µM) | 0.09 (≈ 0.198 µM) | 2.7 (≈ 5.95 µM) | 0.18 (≈ 0.397 µM) | strong antibacterial activity | strong antibacterial activity | 0.35 (≈ 0.772 µM) | 0.35 (≈ 0.772 µM) | 41.7 (≈ 92 µM) | 83.3 (≈ 184 µM) | 5.3 (≈ 11.7 µM) | 0.35 (≈ 0.772 µM) | > 416 | MIC [2, 20]: 1.4 µg/mL (≈ 3.09 µM); MIC [4, 17]: > 83.3 µg/mL; MIC [8, 22]: 1.4 µg/mL (≈ 3.09 µM); MIC [11, 23]: 2.7 µg/mL (≈ 5.95 µM); MIC (Escherichia coli ATCC 26; [24]): 0.18 µg/mL (≈ 0.397 µM)
COC1COC(OC2C(N)CC(N)C(OC3OC(CN)CC(O)C3N)C2O)C(N)C1N (stereo not shown) [XK-88-5] | complete cross resistance does not always occur | 0.66 (≈ 1.46 µM) | < 0.05 | < 0.02 | 1.31 (≈ 2.91 µM) | 0.04 (≈ 0.0888 µM) | – | 0.07 (≈ 0.155 µM) | 2.7 (≈ 5.99 µM) | 0.66 (≈ 1.46 µM) | 0.09 (≈ 0.2 µM) | strong antibacterial activity | strong antibacterial activity | 0.33 (≈ 0.732 µM) | 0.14 (≈ 0.311 µM) | 20.8 (≈ 46.2 µM) | > 41.6 | 0.04 (≈ 0.0888 µM) | 0.17 (≈ 0.377 µM) | 8.3 (≈ 18.4 µM) | MIC [2, 20]: 0.53 µg/mL (≈ 1.18 µM); MIC [4, 21]: 0.17 µg/mL (≈ 0.377 µM); MIC [8, 22]: 0.66 µg/mL (≈ 1.46 µM); MIC ([9]; ATCC10541, Streptococcus faecalis ATCC 10541, agar dilution, pH 8.0, read-out: Minimum Inhibitory Concentration (M.I.C.)): 10.5 µg/mL (≈ 23.3 µM); MIC [11, 23]: 0.04 µg/mL (≈ 0.0888 µM); MIC (Escherichia coli ATCC 26; [24]): 0.08 µg/mL (≈ 0.178 µM)
